Measurements reported in patent US8859574B2 (IRM LLC, priority 2008, dated 2014).

target: T1, IGF-1R Ba/F3 (Homo sapiens, UniProt P08069); experiment: Ba/F3 Cell Viability Inhibition Assay (IGF-1R Ba/F3); type: cell-based, murine; details: Tel-TK transformed Ba/F3 cells, 48 hours, Britelite luminescence
T1 construct: fused on or other part: TEL- (or BCR-) IGF-1R in Ba/F3: the kinase part holds the site
Source text: The IC50 of a drug may be determined constructing a dose-response curve and examining the effect of different concentrations of antagonist on reversing agonist activity. IC50 values may be calculated for a given antagonist by determining the concentration needed to inhibit half of the maximum biological response of the agonist. To calculate IC50 values, a series of dose-response data (e.g., drug concentrations x1, x2, . . . , xn and growth inhibition y1, y2, . . . , yn, the values of y are in the range of 0-1) is generated. IC50 values may be determined by a computer-aided system using the formula: y=D+((A−D)/(1+10^(x-log(IC50)B) • where A is the ratio of growth inhibition between lowest drug concentration and control; B is the slope of sigmoidal curvel; and D is the ratio of growth inhibition between highest drug concentration and control.
Ba/F3 is a murine IL-3-dependent pro-B lymphoma cell line. Parental Ba/F3 cells are used to generate a panel of sublines whose proliferation and survival is rendered IL-3-independent by stable transduction with individual tyrosine kinases activated by fusion with the amino-terminal portion of TEL (amino acid 1-375) or BCR. In order to generate Ba/F3 cell lines transformed by Tel-Tyrosine Kinase (TK) fusions, parental Ba/F3 cells are infected with a retrovirus harboring each TEL-fusion kinase and subjected to puromycin selection and IL-3 withdrawal to obtain IL-3-independent, transformed Ba/F3 cells.
Each transformed Ba/F3 cells are cultured in RPMI-1640 media (Gibco Cat #11875093, Carlsbad, Calif.) supplemented with 10% FBS (Hyclone Cat #SV30014.03, Logan, Utah), 4.5 g/L glucose (Sigma #G5400, St. Louis, Mo.), 1.5 g/L sodium bicarbonate (Biowhittaker #17-613E, Walkersville, Md.) and Pen/Strep (Gibco #10378-016, Carlsbad, Calif.). Cells are splitted twice weekly.
The potency of test compounds against various Tel-TK transformed Ba/F3 lines is determined as follows. Exponentially growing BaF3 Tel-TK cells are diluted in fresh medium to 75,000 cells/mL and seeded into 384-well plates (3750 cells/well) at 50 μL/well using a μFill liquid dispenser (BioTek, Winooski, Vt., USA). Duplicate plates are run for each cell line. Test and control compounds are serially diluted with DMSO and arrayed in a polypropylene 384-well plate. […] of compound is transferred into the assay plates using a pin-transfer device, and the plates are incubated at 37° C. (5% CO2) for 48 hours. 25 μL Britelite (Perkin Elmer) is added and luminescence is quantified using Analyst GT (Molecular Devices). Custom curve-fitting software is used to produce a logistic fit of percent cell viability as a function of the logarithm of inhibitor concentration. The IC50 is interpolated as the concentration of compound needed to reduce cell viability to 50% of a DMSO control. Parental Ba/F3 cells that are maintained and cultured in presence of IL-3 (1 ng/ml in final) are diluted in fresh medium containing IL-3 (1 ng/ml in final) to 75,000 cells/mL following the same procedure as described above.

T1 sequence (P08069 999-1274 limits assumed): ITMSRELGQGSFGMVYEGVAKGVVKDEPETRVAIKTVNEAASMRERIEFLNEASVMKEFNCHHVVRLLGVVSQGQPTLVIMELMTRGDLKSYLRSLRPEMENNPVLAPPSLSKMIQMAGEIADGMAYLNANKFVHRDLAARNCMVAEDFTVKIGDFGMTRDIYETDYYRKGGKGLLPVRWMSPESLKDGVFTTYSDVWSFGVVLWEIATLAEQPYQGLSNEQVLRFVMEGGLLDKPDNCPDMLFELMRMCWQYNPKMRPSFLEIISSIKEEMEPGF

Structure (SMILES) | IC50 [nM]
Cc1cc(Nc2nc(Nc3cc(C)c(C4CCN(S(=O)(=O)CCCN5CCC5)CC4)cc3C)ncc2Cl)n[nH]1 [Compound 195, N2-(4-(1-(3-(azetidin-1-yl)propylsulfonyl)piperidin-4-yl)-2,5-dimethylphenyl)-5-chloro-N4-(5-methyl-1H-pyrazol-3-yl)pyrimidine-2,4-diamine] | 27
CNC(=O)[C@H](C)N1CCC(c2cc(F)c(Nc3ncc(Cl)c(Nc4cc(C)[nH]n4)n3)cc2C)CC1 [Compound 164, (S)-2-(4-(4-(5-chloro-4-(5-methyl-1H-pyrazol-3-ylamino)pyrimidin-2-ylamino)-5-fluoro-2-methylphenyl)piperidin-1-yl)-N-methylpropanamide] | 33
Cc1cc(Nc2nc(Nc3cc(C)c(C4CCN(S(=O)(=O)C5CC5)CC4)cc3F)ncc2Cl)n[nH]1 [Compound 64, 5-chloro-N2-(4-(1-(cyclopropylsulfonyl)piperidin-4-yl)-2-fluoro-5-methylphenyl)-N4-(5-methyl-1H-pyrazol-3-yl)pyrimidine-2,4-diamine] | 59
Cc1cc(Nc2nc(Nc3cc(C(F)(F)F)c(C4CCNCC4)cc3C)ncc2Cl)n[nH]1 [Compound 254, 5-chloro-N4-(5-methyl-1H-pyrazol-3-yl)-N2-(2-methyl-4-(piperidin-4-yl)-5-(trifluoromethyl)phenyl)pyrimidine-2,4-diamine] | 70
Cc1cc(Nc2nc(Nc3cc(C)c(C4CCN(C(=O)c5c(C)nn(C)c5C)CC4)cc3F)ncc2Cl)n[nH]1 [Compound 129, (4-(4-(5-chloro-4-(5-methyl-1H-pyrazol-3-ylamino)pyrimidin-2-ylamino)-5-fluoro-2-methylphenyl)piperidin-1-yl)(1,3,5-trimethyl-1H-pyrazol-4-yl)methanone] | 25
CNC(=O)[C@H](C)N1CCC(c2cc(C)c(Nc3ncc(Cl)c(Nc4cc(C)[nH]n4)n3)cc2C)CC1 [Compound 168, (S)-2-(4-(4-(5-chloro-4-(5-methyl-1H-pyrazol-3-ylamino)pyrimidin-2-ylamino)-2,5-dimethylphenyl)piperidin-1-yl)-N-methylpropanamide] | 10
Cc1cc(Nc2nc(Nc3cc(C)c(C4CCN(CC5CC5(F)F)CC4)cc3F)ncc2Cl)n[nH]1 (centres unmarked) [Compound 235, 5-chloro-N-(4-(1-((2,2-difluorocyclopropyl)methyl)piperidin-4-yl)-2-fluoro-5-methylphenyl)-N^4-(5-methyl-1H-pyrazol-3-yl)pyrimidine-2,4-diamine] | 63
CCN(CC)CC(=O)N1CCC(c2cc(F)c(Nc3ncc(Cl)c(Nc4cc(C)[nH]n4)n3)cc2C)CC1 [Compound 81, 1-(4-(4-(5-chloro-4-(5-methyl-1H-pyrazol-3-ylamino)pyrimidin-2-ylamino)-5-fluoro-2-methylphenyl)piperidin-1-yl)-2-(diethylamino)ethanone] | 30
Cc1cc(Nc2nc(Nc3cc(C)c(C4CCN(C(=O)CN5CCCCC5)CC4)cc3C)ncc2Cl)n[nH]1 [Compound 101, 1-(4-(4-(5-chloro-4-(5-methyl-1H-pyrazol-3-ylamino)pyrimidin-2-ylamino)-2,5-dimethylphenyl)piperidin-1-yl)-2-(piperidin-1-yl)ethanone] | 7
Cc1cc(Nc2nc(Nc3cc(C)c(C4CCN(S(=O)(=O)c5cccnc5)CC4)cc3F)ncc2Cl)n[nH]1 [Compound 65, 5-chloro-N2-(2-fluoro-5-methyl-4-(1-(pyridin-3-ylsulfonyl)piperidin-4-yl)phenyl)-N4-(5-methyl-1H-pyrazol-3-yl)pyrimidine-2,4-diamine] | 76
CNC(=O)CN1CCC(c2cc(C)c(Nc3ncc(Cl)c(Nc4cc(C)[nH]n4)n3)cc2C)CC1 [Compound 38, 2-(4-(4-(5-chloro-4-(5-methyl-1H-pyrazol-3-ylamino)pyrimidin-2-ylamino)-2,5-dimethylphenyl)piperidin-1-yl)-N-methylacetamide] | 10
Cc1cc(Nc2nc(Nc3cc(C)c(C4CCCNC4)cc3C)ncc2Cl)n[nH]1 (centres unmarked) [Compound 15, 5-chloro-N2-(2,5-dimethyl-4-(piperidin-3-yl)phenyl)-N4-(5-methyl-1H-pyrazol-3-yl)pyrimidine-2,4-diamine] | 50
Cc1cc(Nc2nc(Nc3cc(C)c(C4CCN(C(=O)[C@@H]5CCN5)CC4)cc3F)ncc2Cl)n[nH]1 [Compound 132, (S)-azetidin-2-yl(4-(4-(5-chloro-4-(5-methyl-1H-pyrazol-3-ylamino)pyrimidin-2-ylamino)-5-fluoro-2-methylphenyl)piperidin-1-yl)methanone] | 161
Cc1cc(Nc2nc(Nc3cc(C)c(C4CCN(Cc5cccnc5)CC4)cc3F)ncc2Cl)n[nH]1 [Compound 297, 5-chloro-N2-(2-fluoro-5-methyl-4-(1-(pyridin-3-ylmethyl)piperidin-4-yl)phenyl)-N4-(5-methyl-1H-pyrazol-3-yl)pyrimidine-2,4-diamine] | 79
Cc1cc(Nc2nc(Nc3cc(C)c(C4CCN(C[C@H](O)C(F)(F)F)CC4)cc3C)ncc2C)n[nH]1 [Compound 179, (S)-3-(4-(2,5-dimethyl-4-(5-methyl-4-(5-methyl-1H-pyrazol-3-ylamino)pyrimidin-2-ylamino)phenyl)piperidin-1-yl)-1,1,1-trifluoropropan-2-ol] | 120
Cc1cc(Nc2nc(Nc3cc(C)c(C4CCN(S(=O)(=O)CCCN5CCOCC5)CC4)cc3C)ncc2Cl)n[nH]1 [Compound 194, 5-Chloro-N^2-(2,5-dimethyl-4-(1-(3-morpholinopropylsulfonyl)piperidin-4-yl)phenyl)-N^4-(5-methyl-1H-pyrazol-3-yl)pyrimidine-2,4-diamine] | 13
Cc1cc(Nc2nc(Nc3cc(C)c(C4CCN(C5CCN(C(=O)OC(C)(C)C)C5)CC4)cc3F)ncc2Cl)n[nH]1 (centres unmarked) [Compound 291, tert-butyl 3-(4-(4-(5-chloro-4-(5-methyl-1H-pyrazol-3-ylamino)pyrimidin-2-ylamino)-5-fluoro-2-methylphenyl)piperidin-1-yl)pyrrolidine-1-carboxylate] | 67
Cc1cc(Nc2nc(Nc3cc(C)c(C4CCN(C(C)C(N)=O)CC4)cc3F)ncc2Cl)n[nH]1 (centres unmarked) [Compound 49, 2-(4-(4-(5-chloro-4-(5-methyl-1H-pyrazol-3-ylamino)pyrimidin-2-ylamino)-5-fluoro-2-methylphenyl)piperidin-1-yl)propanamide] | 15
Cc1cc(Nc2nc(Nc3cc(C)c(C4CCN(C(N)=O)CC4)cc3C)ncc2Cl)n[nH]1 [Compound 72, 4-(4-(5-chloro-4-(5-methyl-1H-pyrazol-3-ylamino)pyrimidin-2-ylamino)-2,5-dimethylphenyl)piperidine-1-carboxamide] | 6
Cc1cc(Nc2nc(Nc3cc(C)c(C4CCN(CCCS(=O)(=O)N5CCC5)CC4)cc3C)ncc2Cl)n[nH]1 [Compound 214, N^2-(4-(1-(3-(azetidin-1-ylsulfonyl)propyl)piperidin-4-yl)-2,5-dimethylphenyl)-5-chloro-N^4-(5-methyl-1H-pyrazol-3-yl)pyrimidine-2,4-diamine] | 40
Cc1cc(Nc2nc(Nc3cc(C)c(C4CCN(C(=O)CN)CC4)cc3F)ncc2Cl)n[nH]1 [Compound 79, 2-amino-1-(4-(4-(5-chloro-4-(5-methyl-1H-pyrazol-3-ylamino)pyrimidin-2-ylamino)-5-fluoro-2-methylphenyl)piperidin-1-yl)ethanone] | 75
Cc1cc(Nc2nc(Nc3cc(C)c(C4CCNCC4)cc3C)ncc2C(F)(F)F)n[nH]1 [Compound 257, N^2-(2,5-dimethyl-4-(piperidin-4-yl)phenyl)-N^4-(5-methyl-1H-pyrazol-3-yl)-5-(trifluoromethyl)pyrimidine-2,4-diamine] | 64
Cc1cc(Nc2nc(Nc3cc(Cl)c(C4CCN(C)CC4)cc3C)ncc2Cl)n[nH]1 [Compound 7, 5-chloro-N2-(5-chloro-2-methyl-4-(1-methylpiperidin-4-yl)phenyl)-N4-(5-methyl-1H-pyrazol-3-yl)pyrimidine-2,4-diamine] | 15
